# Where “and” joins values, the source holds several entries; their conditions need not be identical. Equal entries are not always repeated.
# Assays:
# LSt neurons [1] = assay: Sexual behavior tests after lesion surgery; type: in vivo, male rats; conditions: 6 post-surgery tests, 100 minutes with receptive female
# Description: (§1) Control animals are injected with non-conjugated equimolar concentrations of SAP. […] Rats with obvious motor impairment after surgery (n=10; 7 injected with SAP; 3 injected with SSP-SAP) are excluded from the study. Sexual behavior is first tested 10 days after lesion surgery, and during 5 subsequent twice-weekly tests. The trials are performed during the dark phase of the light cycle and consisted of the male rat being placed into the testing cage for 100 minutes with a receptive female. Stimulus females were ovariectomized and implanted subcutaneously (s.c.) with 5% 17-beta-estradiol benzoate silastic capsules. Progesterone (500 μg in 0.1 ml of sesame oil) was injected (s.c.) 4-6 hours prior to testing to induce sexual receptivity. Latencies and numbers of mounts, intromissions, and ejaculations are recorded, and vaginas of females are checked for seminal plugs multiple times during mating tests.
# The effects of LSt lesions on display of sexual behavior are assessed in the three groups described above. LSt lesions have a dramatic effect on sexual behavior. […] Furthermore, ablation of LSt neurons appears to selectively block ejaculatory behavior while not affecting other components of sexual behavior.
# [2] = Motor impairment after surgery; type: in vivo; conditions: number of SAP-injected control rats excluded; 10 excluded in total (3 SSP-SAP)
# Description: as §1
# LSt neurons [3] = assay: Optical density of galanin-IR and SPR-IR around IML, CAN and SPN after LSt lesion; type: in vivo, rats
# Source text: In these areas galanin-IR is present in fibers, while SPR-IR is located in neurons and fibers. […] In contrast, SPR-IR is not reduced following LSt lesions.
# Following the final behavior test, animals are perfused intracardially with 4% paraformaldehyde and spinal cord tissue is collected for further processing. Spinal cords are cut into 35μm coronal sections and collected in 12 parallel series. Adjacent sections are stained for galanin, SPR or neuronal marker N using the general procedures as described in W. Truitt, M. Shipley, J. Veening, L. Coolen, J. Neurosci (2002). The primary antibodies and concentrations that are used include: Galanin—rabbit anti-galanin at 1:80,000 (PenLabs), Substance P receptor—rabbit anti-NK1 at 1:1,000 (Advanced Targeting Systems), and Neuronal marker N—mouse anti-NeuN at 1:10,000 (Chemicon).
# LSt neurons [4] = assay: Cell counts (galanin-IR, SPR-IR, NeuN-IR) in L3-L4 spinal cord after intraspinal SSP-SAP or SAP; type: in vivo; conditions: complete = galanin-IR LSt neurons less than 1/3 of untreated rats
# Source text: First a membrane target located on the LSt neurons is identified. […] Identification of the SPR receptor on LSt cells enable the use of the targeted toxin SSP-SAP, which consists of the ribosome inhibitor protein toxin saporin (SAP) conjugated to a substance P analogue (SSP) with high affinity for SPR. SSP-SAP is infused into the L3-4 spinal cord at the location of the LSt cells in sexually experienced or sexually naive male rats. Male rats are allowed to mate with a receptive female during 6 pre-operative sessions (3 ejaculations or 100 minutes each).
# All procedures are approved by the Animal Care and use Committee of the University of Cincinnati, Ohio and conformed to NIH guidelines involving vertebrate animals in research. Male rats are deeply anesthetized using ketamine/xylazine and laminectomy of L3 and L4 is performed. […]
# Control animals are injected with non-conjugated equimolar concentrations of SAP. […] Latencies and numbers of mounts, intromissions, and ejaculations are recorded, and vaginas of females are checked for seminal plugs multiple times during mating tests. […]
# Non-specific lesioning is determined by counting neurons visualized by neuronal marker N-IR. SPR containing cells are also counted in a standard area in the dorsal horn, as illustrated in FIG. 2A (area 2), to determine if lesioning is restricted to the area surrounding the central canal. […]
# LSt neurons [5] = assay: Fos-IR in galanin-IR LSt neurons after 8-OH-DPAT; type: in vivo, male rats; conditions: 0.8 mg/kg s.c.
# Description: Activation of LSt neurons is assessed using Fos immunoreactivity (IR) as a marker for neural activation and galanin or CCK-IR to identify LSt cells.
# One hour following the end of the behavioral test, animals are anesthetized using sodium pentobarbital (200 mg/kg; i.p.) and perfused transcardially with 100 ml 0.9% saline, followed by 500 ml of 4% paraformaldehyde in 0.1 M sodium phosphate buffer (PB, pH 7.3-7.4). Brain and spinal cords are removed and post fixed for 1 hr at room temperature in the fixative. Coronal sections of thoracic (T), lumbar (L) and sacral (S) spinal cord (T10-S4) are cut at 35 μm on a Microm freezing microtome (Richard Allen, Kalamazoo, Mich.) and collected in twelve parallel series in cryorotectant solution (30% sucrose, 30% ethylene glycol in 0.1 M PB; Watson et al, 1985). In addition, coronal sections ( 35 µm) through thalamus are cut and stored in four parallel series.
# All incubations are performed at room temperature with gentle agitation. Series of spinal cord sections ([…]) are rinsed extensively in phosphate buffered saline (PBS) between incubations. Free-floating sections are blocked with 1% H2O2 for 10 min at room temperature and then soaked for one hour in incubation solution (PBS containing 0.1% bovine serum albumin and 0.4% triton X-100). Next, sections are incubated overnight with a primary antiserum in incubation solution to recognize Fos (polyclonal anti-Fos antiserum raised in rabbit; 1:10,000; Santa Cruz, Santa Cruz, Calif.). […]
# Analysis of labeling for galanin or CCK, Fos, and dual labeling for Fos and Galanin or CCK, is performed on a Leica light microscope at 4×-40× magnification. Neurons single labeled for galanin or CCK are determined by brown staining of cytoplasm with a nucleus devoid of blue-black (Fos) reaction product. […] Dual labeling is expressed as the percentage of galanin or CCK cells that expressed Fos. […]
# male rats = assay: Copulatory behavior after 8-OH-DPAT; type: in vivo; conditions: 0.8 mg/kg s.c. 30 minutes before test; E1-DP rats, n=3
# Description: All male and female rats are sexually experienced. […] The female rats are bilaterally ovariectomized two weeks prior to testing. Sexual receptivity is induced using a standard regimen of exogenous estrogen and progesterone, similar to that used for the stimulus females, described above. One week before testing females receive hormone treatment and mating experience with sexually experienced male partners. All testing of experimental groups is performed four hours after onset of the dark period, in a rectangular mating arena (60-45-50 cm), under dim red illumination. After completion of the mating tests, the sexual partners are removed, and experimental animals remained in the test cage for an additional 60 minutes until sacrifice.
# The number of mounts, intromissions and total duration of the tests, are recorded for analysis of copulatory behavior. Numbers of mounts and intromissions, as well as duration of test are compared using a one-way ANOVA. Post hoc comparisons are made using the Scheffe test with an alpha of 0.05 required for rejection of the null hypothesis.
# The purpose of this example is to investigate neural activation of lumbar spinal cord in male rats that display minimal sexual activity prior to ejaculation. Therefore, male rats are treated with 8-hydroxy-2-(di-n-propylamino) tetralin (8-OH-DPAT), which decreases the number of mounts and intromissions prior to ejaculation. […]
Compound,display of ejaculatory behavior (LSt neurons [1]),rats with obvious motor impairment after surgery (excluded) [2],"CAN-SPR optical density (LSt neurons [3]; Substance P receptor-IR around central autonomic nucleus, group in label)","IML-SPR optical density (LSt neurons [3]; Substance P receptor-IR around intermediolateral column, group in label)","SPN-SPR optical density (LSt neurons [3]; Substance P receptor-IR around sacral parasympathetic nucleus, group in label)","CAN-galanin optical density (LSt neurons [3]; galanin-IR around central autonomic nucleus, group in label)","IML-galanin optical density (LSt neurons [3]; galanin-IR around intermediolateral column, group (SAP, SSP-il, SSP-les) in label)","SPN-galanin optical density (LSt neurons [3]; galanin-IR around sacral parasympathetic nucleus, group in label)",lesions of LSt neurons (LSt neurons [4]),"activation of Galanin neurons (Fos) (LSt neurons [5]; 8-OH-DPAT alone, no exposure to female (DPc group))","Galanin-IR neurons containing Fos-IR (LSt neurons [5]; E1-DP males, after one ejaculation)","mean number of galanin-IR neurons (LSt neurons [5]; two groups (one ejaculation / no female), order of values not stated)",average number of intromissions prior to ejaculation (male rats),average number of mounts prior to ejaculation (male rats)
saporin,continue to ejaculate regularly,7,"380.26 ± 39.06 pixels (×1,000)","209.91 ± 30.92 pixels (×1,000)","392.68 ± 50.65 pixels (×1,000)","128.84 ± 25.81 pixels (×1,000)","58.82 ± 12.85 pixels (×1,000)","137.75 ± 14.99 pixels (×1,000)",no lesions,–,–,–,–,–
"CCCN(CCC)C1CCc2cccc(O)c2C1 (centres unmarked) [8-OH-DPAT, 8-hydroxy-2-(di-n-propylamino) tetralin]",–,–,–,–,–,–,–,–,–,do not result in activation,85.55%±1.76,33.67±4.06 and 33.33±5.53,1.33±0.67,2.33±1.20
